Measured values reported in patent US7012088B2, “Indolone oxazolidinones and derivatives thereof” (Pharmacia & Upjohn Company, priority 2003, dated 2006).
≈ marks a conversion by molar mass, not a printed value.

Experiments:
S. pneumoniae SPNE 9912 = experiment: MIC by standard agar dilution method, S. pneumoniae; format: cell-based; conditions: Streptococcus pneumoniae, SPNE9912, Mueller Hinton agar, overnight at 35° C.
Description: (§1) The oxazolidinone antibacterial agents of this invention have useful activity against a variety of organisms. The in vitro activity of compounds of this invention can be assessed by standard testing procedures such as the determination of minimum inhibitory concentration (MIC) by agar dilution as described in “Approved Standard. Methods for Dilution Antimicrobial Susceptibility Tests for Bacteria That Grow Aerobically”, 3rd. ed., published 1993 by the National Committee for Clinical Laboratory Standards, Villanova, Pa., USA. The in vitro MICs of test compounds were determined by a standard agar dilution method. A stock drug solution of each analog was prepared in the preferred solvent, usually DMSO:H2O (1:3). Serial 2-fold dilutions of each sample are made using 1.0 ml aliquots of sterile distilled water. To each 1.0 ml aliquot of drug was added 9 ml of molten Mueller Hinton agar medium. The drug-supplemented agar was mixed, poured into 15×100 mm petri dishes, and allowed to solidify and dry prior to inoculation. Vials of each of the test organisms are maintained frozen in the vapor phase of a liquid nitrogen freezer. Test cultures are grown overnight at 35° C. on the medium appropriate for the organism. Colonies are harvested with a sterile swab, and cell suspensions are prepared in Trypticase Soy broth (TSB) to equal the turbidity of a 0.5 McFarland standard. A 1:20 dilution of each suspension was made in TSB. The plates containing the drug supplemented agar are inoculated with a 0.001 ml drop of the cell suspension using a Steers replicator, yielding approximately 10^4 to 10^5 cells per spot. The plates are incubated overnight at 35° C. Following incubation the Minimum Inhibitory Concentration (MIC μg/ml), the lowest concentration of drug that inhibits visible growth of the organism, was read and recorded.

S. aureus SAUR 9213 = experiment: MIC by standard agar dilution method, S. aureus; format: cell-based; conditions: Staphylococcus aureus, SAUR9213, Mueller Hinton agar, overnight at 35° C.
Description: as §1

MIC (S. pneumoniae SPNE 9912) [µg/mL] | melting point | MIC (S. aureus SAUR 9213) [µg/mL] | SMILES
2 (≈ 6.15 µM) | 242.5 to 245 °C | 2 (≈ 6.15 µM) | CNC(=O)[C@H]1CN(c2ccc3c(c2)C(F)(F)C(=O)N3C)C(=O)O1 [Example 1, (5R)-(−)-3-(3,3-Difluoro-2,3-dihydro-1-methyl-2-oxo-1H-indol-5-yl)-N-methyl-2-oxo-5-oxazolidinecarboxamide]
2 (≈ 5.66 µM) | 139 to 141 °C | 8 (≈ 22.6 µM) | CCN1C(=O)C(F)(F)c2cc(N3C[C@H](CNC(C)=O)OC3=O)ccc21 [Example 6, N-[[(5S)-(−)-3-(3,3-Difluoro-2,3-dihydro-1-ethyl-2-oxo-1H-indol-5-yl)-2-oxo-5-oxazolidinyl]methyl]acetamide]
4 (≈ 11.8 µM) | 211 to 213 °C | 8 (≈ 23.6 µM) | CCN1C(=O)C(F)(F)c2cc(N3C[C@H](C(=O)NC)OC3=O)ccc21 [Example 4, (5R)-(−)-3-(3,3-Difluoro-2,3-dihydro-1-ethyl-2-oxo-1H-indol-5-yl)-N-methyl-2-oxo-5-oxazolidinecarboxamide]
1 (≈ 2.95 µM) | 125 to 127 °C | 2 (≈ 5.89 µM) | CC(=O)NC[C@H]1CN(c2ccc3c(c2)C(F)(F)C(=O)N3C)C(=O)O1 [Example 5, N-[[(5S)-(−)-3-(3,3-Difluoro-2,3-dihydro-1-methyl-2-oxo-1H-indol-5-yl)-2-oxo-5-oxazolidinyl]methyl]acetamide]
1 to 2 (≈ 3.21 to 6.43 µM) | 274 to 277 °C (dec.) | 2 (≈ 6.43 µM) | CN1C(=O)C(F)(F)c2cc(N3C[C@H](C(N)=O)OC3=O)ccc21 [Example 2, (5R)-(−)-3-(3,3-difluoro-2,3-dihydro-1-methyl-2-oxo-1H-indol-5-yl)-2-oxo-5-oxazolidinecarboxamide]
4 (≈ 12.3 µM) | 201 to 203 °C | 8 (≈ 24.6 µM) | CCN1C(=O)C(F)(F)c2cc(N3C[C@H](C(N)=O)OC3=O)ccc21 [Example 3, (5R)-(−)-3-(3,3-difluoro-2,3-dihydro-1-ethyl-2-oxo-1H-indol-5-yl)-2-oxo-5-oxazolidinecarboxamide]
